Data published in the supplement of paper PMC11061612.

How the values were obtained:
Assay in all cases: combination Emax (second highest fraction inhibited in the dose matrix, 72 h); higher = more inhibition; extreme values may be limits of the assay
[1] = system: 8-MG-BA (Glioblastoma)
Method in brief: (§1)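 Cell lines grown in DMEM/F12 or RPMI with 10% FBS were plated in 1536-well plates and held 24 hours at 37°C, 5% CO2 before 72 hours of exposure to two-drug dose matrices, with DMSO typically at 0.2%. CellTiter-Glo 2.0 luminescence gave viability, which was converted to inhibition. Vehicle wells were set to 0 and blank wells to 1. Combination Emax is the second-highest inhibition in the matrix, and Bliss excess is the observed combination effect minus the expected EA + EB − EA·EB, where EA and EB are the single-agent effects.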

[2] = system: A3-KAW (B-Cell Non-Hodgkin's Lymphoma)
Method in brief: as §1

[3] = system: A498 (Kidney Carcinoma)
Method in brief: as §1

[4] = system: ARH-77 (Non-Cancerous)
Method in brief: as §1

[5] = system: CAL-29 (Bladder Carcinoma)
Method in brief: as §1

[6] = system: CCK-81 (Colorectal Carcinoma)
Method in brief: as §1

[7] = system: COLO-824 (Breast Carcinoma)
Method in brief: as §1

[8] = system: GI-ME-N (Neuroblastoma)
Method in brief: as §1

[9] = system: Hs-445 (Non-Cancerous)
Method in brief: as §1

[10] = system: IGR-37 (Melanoma)
Method in brief: as §1

[11] = system: JSC-1 (B-Cell Non-Hodgkin's Lymphoma)
Method in brief: as §1

[12] = system: MDST8 (Colorectal Carcinoma)
Method in brief: as §1

[13] = system: NCI-H1581 (Non-Small Cell Lung Carcinoma)
Method in brief: as §1

[14] = system: NCI-H1666 (Lung Adenocarcinoma)
Method in brief: as §1

[15] = system: NCI-H2591 (Mesothelioma)
Method in brief: as §1

[16] = system: NY (Osteosarcoma)
Method in brief: as §1

[17] = system: PANC-10-05 (Pancreatic Carcinoma)
Method in brief: as §1

[18] = system: SK-MG-1 (Low Grade Glioma)
Method in brief: as §1

[19] = system: TT (Thyroid Gland Carcinoma)
Method in brief: as §1

[20] = system: VCaP (Prostate Carcinoma)
Method in brief: as §1

Structure (SMILES) | combination Emax [1] | combination Emax [2] | combination Emax [3] | combination Emax [4] | combination Emax [5] | combination Emax [6] | combination Emax [7] | combination Emax [8] | combination Emax [9] | combination Emax [10] | combination Emax [11] | combination Emax [12] | combination Emax [13] | combination Emax [14] | combination Emax [15] | combination Emax [16] | combination Emax [17] | combination Emax [18] | combination Emax [19] | combination Emax [20]
Cc1cc2ncnn2cc1Nc1ncc2c(n1)n(C1CCOCC1)c(=O)n2C [AZD7648] + CCN(CCO)CCCOc1ccc2c(Nc3cc(CC(=O)Nc4cccc(F)c4)[nH]n3)ncnc2c1 [AZD2811] (first compound max 10 µM, 7x7, partner max 1 µM) | 0.358 | 0.608 | 0.439 | 0.54 | 0.301 | 0.291 | 0.762 | 0.207 | 0.465 | 0.285 | 0.486 | 0.485 | 0.499 | 0.381 | 0.37 | 0.242 | 0.43 | 0.461 | 0.611 | 0.314
Cc1cc2ncnn2cc1Nc1ncc2c(n1)n(C1CCOCC1)c(=O)n2C [AZD7648] + CN(C)CCCOc1ccc(-c2ccc3ncc4c(c3c2)n(C2CCOCC2)c(=O)n4C)cn1 [AZD0156] (first compound max 10 µM, 7x7, partner max 1 µM) | 0.31 | 0.597 | 0.401 | 0.54 | 0.218 | 0.299 | 0.283 | 0.157 | 0.313 | 0.263 | 0.303 | 0.439 | 0.369 | 0.431 | 0.334 | 0.286 | 0.483 | 0.359 | 0.41 | 0.265
Cc1cc2ncnn2cc1Nc1ncc2c(n1)n(C1CCOCC1)c(=O)n2C [AZD7648] + C[C@@H]1COCCN1C2=NC(=NC(=C2)C3(CC3)[S@](=N)(=O)C)C4=C5C=CNC5=NC=C4 [AZD6738] (first compound max 10 µM, 7x7, partner max 10 µM) | 0.769 | 0.969 | 0.585 | 0.89 | 0.598 | 0.9 | 0.738 | 0.59 | 0.853 | 0.761 | 0.896 | 0.775 | 0.471 | 0.354 | 0.39 | 0.527 | 0.49 | 0.584 | 0.604 | 0.452
Cc1cc2ncnn2cc1Nc1ncc2c(n1)n(C1CCOCC1)c(=O)n2C [AZD7648] + O=C(c1cc(Cc2n[nH]c(=O)c3ccccc23)ccc1F)N1CCN(C(=O)C2CC2)CC1 [Olaparib] (first compound max 10 µM, 7x7, partner max 10 µM) | 0.329 | 0.656 | 0.441 | 0.522 | 0.384 | 0.162 | 0.279 | 0.141 | 0.373 | 0.109 | 0.0503 | 0.289 | 0.168 | 0.0994 | 0.248 | 0.14 | 0.299 | 0.238 | 0.161 | 0.141
NC1(C(=O)N[C@@H](CCO)c2ccc(Cl)cc2)CCN(c2ncnc3[nH]ccc23)CC1 [Capivasertib] + CC(=O)c1c(C)c2cnc(Nc3ccc(N4CCNCC4)cn3)nc2n(C2CCCC2)c1=O [Palbociclib] (first compound max 10 µM, 7x7, partner max 10 µM) | 0.597 | 0.846 | 0.629 | 0.705 | 0.479 | 0.337 | 0.612 | 0.422 | 0.613 | 0.396 | 0.669 | 0.656 | 0.373 | 0.382 | 0.364 | 0.161 | 0.49 | 0.62 | 0.447 | 0.514
NC1(C(=O)N[C@@H](CCO)c2ccc(Cl)cc2)CCN(c2ncnc3[nH]ccc23)CC1 [Capivasertib] + CC(C)n1c(=O)n(C)c2cnc3cc(F)c(-c4ccc(OCCCN5CCCCC5)nc4)cc3c21 [AZD1390] (first compound max 10 µM, 7x7, partner max 0.3 µM) | 0.387 | 0.49 | 0.542 | 0.657 | 0.337 | 0.327 | 0.464 | 0.335 | 0.483 | 0.447 | 0.364 | 0.363 | 0.129 | 0.31 | 0.182 | 0.309 | 0.416 | 0.519 | 0.425 | 0.458
NC1(C(=O)N[C@@H](CCO)c2ccc(Cl)cc2)CCN(c2ncnc3[nH]ccc23)CC1 [Capivasertib] + CCN(CCO)CCCOc1ccc2c(Nc3cc(CC(=O)Nc4cccc(F)c4)[nH]n3)ncnc2c1 [AZD2811] (first compound max 10 µM, 7x7, partner max 1 µM) | 0.508 | 0.674 | 0.586 | 0.748 | 0.452 | 0.366 | 0.85 | 0.324 | 0.678 | 0.371 | 0.69 | 0.511 | 0.469 | 0.388 | 0.297 | 0.257 | 0.42 | 0.607 | 0.544 | 0.543
NC1(C(=O)N[C@@H](CCO)c2ccc(Cl)cc2)CCN(c2ncnc3[nH]ccc23)CC1 [Capivasertib] + COc1nnc2ccc(N3CCC(c4ccc(OCCN5CCN(C)C(=O)[C@H]5C)cc4)CC3)nn12 [AZD5153] (first compound max 10 µM, 7x7, partner max 1 µM) | 0.797 | 1 | 0.824 | 0.885 | 0.723 | 0.695 | 0.776 | 0.343 | 0.722 | 0.662 | 0.793 | 0.733 | 0.462 | 0.385 | 0.334 | 0.346 | 0.669 | 0.721 | 0.695 | 0.96
NC1(C(=O)N[C@@H](CCO)c2ccc(Cl)cc2)CCN(c2ncnc3[nH]ccc23)CC1 [Capivasertib] + C[C@@H]1COCCN1C2=NC(=NC(=C2)C3(CC3)[S@](=N)(=O)C)C4=C5C=CNC5=NC=C4 [AZD6738] (first compound max 10 µM, 7x7, partner max 10 µM) | 0.873 | 0.992 | 0.694 | 0.927 | 0.716 | 0.857 | 0.68 | 0.411 | 0.78 | 0.733 | 0.95 | 0.765 | 0.235 | 0.44 | 0.482 | 0.645 | 0.519 | 0.668 | 0.484 | 0.567
NC1(C(=O)N[C@@H](CCO)c2ccc(Cl)cc2)CCN(c2ncnc3[nH]ccc23)CC1 [Capivasertib] + Cn1cnc2c(F)c(Nc3ccc(Br)cc3Cl)c(C(=O)NOCCO)cc21 [Selumetinib] (first compound max 10 µM, 7x7, partner max 10 µM) | 0.592 | 0.698 | 0.799 | 0.674 | 0.66 | 0.737 | 0.595 | 0.377 | 0.623 | 0.897 | 0.724 | 0.757 | 0.513 | 0.623 | 0.469 | 0.305 | 0.727 | 0.681 | 0.587 | 0.487
Cc1nc(Nc2ncc(C(=O)Nc3c(C)cccc3Cl)s2)cc(N2CCN(CCO)CC2)n1 [Dasatinib] + CC(=O)Nc1cccc(-n2c(=O)n(C3CC3)c(=O)c3c(Nc4ccc(I)cc4F)n(C)c(=O)c(C)c32)c1 [Trametinib] (first compound max 2 µM, 7x7, partner max 1 µM) | 0.756 | 0.464 | 0.503 | 0.635 | 0.625 | 0.641 | 0.232 | 0.49 | 0.517 | 0.838 | 0.543 | 0.781 | 0.552 | 0.651 | 0.527 | 0.738 | 0.877 | 0.65 | 0.441 | 0.0632
COc1cccc2c1C(=O)c1c(O)c3c(c(O)c1C2=O)C[C@@](O)(C(=O)CO)C[C@@H]3O[C@H]1C[C@H](N)[C@H](O)[C@H](C)O1 [Doxorubicin] + Cc1cc2ncnn2cc1Nc1ncc2c(n1)n(C1CCOCC1)c(=O)n2C [AZD7648] (first compound max 1 µM, 7x7, partner max 10 µM) | 0.938 | 0.984 | 0.598 | 0.972 | 0.735 | 0.477 | 0.501 | 0.812 | 0.94 | 0.777 | 0.97 | 0.965 | 0.866 | 0.825 | 0.693 | 0.581 | 0.715 | 0.802 | 0.604 | 0.641
COc1cc2ncnc(Nc3ccc(F)c(Cl)c3)c2cc1OCCCN1CCOCC1 [Gefitinib] + CC(C)n1c(=O)n(C)c2cnc3cc(F)c(-c4ccc(OCCCN5CCCCC5)nc4)cc3c21 [AZD1390] (first compound max 10 µM, 7x7, partner max 0.3 µM) | 0.268 | 0.605 | 0.298 | 0.272 | 0.228 | 0.661 | 0.366 | 0.0541 | 0.369 | 0.252 | 0.249 | 0.0181 | 0.0926 | 0.484 | 0.0235 | 0.239 | 0.202 | 0.072 | 0.118 | 0.0675
